Reference: patent publication US10500207B2, “Compounds for the treatment of diseases associated with amyloid or amyloid-like proteins” (AC Immune SA, priority 2010, dated 2019)
Blank lines part the entries; values can stand above or below the compound they belong to.

Molecular target: Aβ1-42 peptide (Homo sapiens, UniProt P05067)
Test: Thioflavin T spectrofluorescence assay (ThT-assay): inhibition of Aβ1-42 aggregation (% inhibition at 330 μM; IC50 from dilution series)
Conditions: 24 h, read-out: Inhibition at 330 μM [%], ThT assay; 330 μM small molecule, 33 μM Aβ1-42 (10:1), 24 hrs at 37° C.; mean ± standard deviation of two independent experiments
Experimental: Aβ1-42 lyophilized powder (Bachem) was reconstituted in hexafluoroisopropanol (HFIP) to 1 mM. The peptide solution was sonicated for 15 min at room temperature, agitated overnight, and aliquots were made into non-siliconized microcentrifuge tubes. The HFIP was then evaporated under a stream of argon. The resulting peptide film was dried under vacuum for 10 min, tightly sealed and stored at −80° C. until used.
A positive control without a small molecule was prepared to measure maximum RFU. A negative control without Aβ1-42 was prepared for each small molecule. […] The solutions were then incubated for 24 hrs at 37° C., and the spectrofluorescence (relative fluorescence units; RFU) were read in six replicates in black 384-well assay plates (Perkin-Elmer) on a Perkin-Elmer FluoroCount spectrofluorometer. The inhibition of aggregation is expressed as mean % inhibition±1 standard deviation (SD) according to the following equation:
Racemic compounds and their enantiomers were tested for their ability to inhibit amyloid peptide aggregation using the ThT assay. To determine the IC50, the following dilutions of the compounds were used in the ThT assay described above:

Aβ1-42 peptide, sequence (P05067 672-713 limits assumed): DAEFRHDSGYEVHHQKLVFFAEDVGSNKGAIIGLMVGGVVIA

Compound: CN1CCC(c2cn(C)c3nc(Nc4ccc5c(c4)OCCO5)ccc23)CC1 [Example 150]
inhibition at 330 µM: 83.9 ± 1.5%

Compound: CN1CCC(c2c[nH]c3cc(Nc4ccc5c(c4)OCO5)ccc23)CC1 [Example 153]
inhibition at 330 µM: 91.3 ± 4.2%

Compound: CN1CCC(c2c[nH]c3cc(Nc4ccc5c(c4)CNCC5)ccc23)CC1 [Example 154]
inhibition at 330 µM: 86.3 ± 2.6%

Compound: CNC1CCc2c(c3ccc(Nc4ccc5ncn(C)c5c4)nc3n2C)C1 (stereo not shown) [Example 159]
inhibition at 330 µM: 91.9 ± 1.6%

Compound: CNC1CCc2c(c3ccc(Nc4ccc(C)c(OC)c4)nc3n2C)C1 (stereo not shown) [Example 160]
inhibition at 330 µM: 96.3 ± 0.3%

Compound: CN1CCC(c2c[nH]c3cc(Nc4ccc(N5CCOCC5)cc4)ccc23)CC1 [Example 162]
inhibition at 330 µM: 94.5 ± 3.1%

Compound: Cn1c2c(c3ccc(Nc4ccc(N5CCOCC5)cc4)nc31)CCCC2 [Example 165]
inhibition at 330 µM: 78.1 ± 0.2%

Compound: CC(=O)N1CCN(c2ccc(Nc3ccc4c5c(n(C)c4n3)CCCC5)cc2)CC1 [Example 170]
inhibition at 330 µM: 70.8 ± 2.3%

Compound: Cn1cnc2ccc(Nc3ccc4c5c(n(C)c4n3)CCCC5)cc21 [Example 172]
inhibition at 330 µM: 68.3 ± 0.8%

Compound: Cn1c2c(c3ccc(Nc4ccc5c(c4)OCCO5)nc31)CCC2 [Example 173]
inhibition at 330 µM: 90.1 ± 2.3%

Compound: CN1CCc2ccc(Nc3ccc4c5c(n(C)c4n3)CCC5)cc2C1 [Example 174]
inhibition at 330 µM: 87.2 ± 1.3%

Compound: Cn1cnc2ccc(Nc3ccc4c5c(n(C)c4n3)CCC5)cc21 [Example 175]
inhibition at 330 µM: 75.5 ± 7.8%

Compound: Cn1c2c(c3cc(Nc4ccc(F)c(F)c4)ccc31)CS(=O)(=O)CC2 [Example 176]
inhibition at 330 µM: 41.5 ± 3.6%

Compound: COc1cc(Nc2ccc3c(c2)c2c(n3C)CCS(=O)(=O)C2)ccc1C [Example 178]
inhibition at 330 µM: 35.4 ± 5.9%

Compound: CN1CCc2ccc(Nc3ccc4c(c3)c3c(n4C)CCS(=O)(=O)C3)cc2C1 [Example 180]
inhibition at 330 µM: 50.2 ± 0.9%

Compound: Fc1ccc(Nc2ccc3c(c2)OCO3)cc1F [Example 186]
inhibition at 330 µM: 66.5 ± 2.4%

Compound: CN1CCN(C(=O)c2ccc(Nc3ccc(F)cc3)cc2)CC1 [Example 189]
inhibition at 330 µM: 12.6 ± 5.5%

Compound: CN1CCN(C(=O)c2ccc(Nc3ccc4c(c3)OCO4)cc2)CC1 [Example 190]
inhibition at 330 µM: 20.1 ± 4.6%

Compound: COC1CCc2c(c3ccc(Nc4ccc(F)cc4)cc3n2C)C1 (stereo not shown) [Example 191]
inhibition at 330 µM: 89.7 ± 1.4%

Compound: COC1CCc2c(c3ccc(Nc4ccc(N5CCOCC5)cc4)nc3n2C)C1 (stereo not shown) [Example 193]
inhibition at 330 µM: 54.3 ± 3.4%

Compound: COC1CCc2c(c3ccc(Nc4ccc5c(c4)OCCO5)nc3n2C)C1 (stereo not shown) [Example 198]
inhibition at 330 µM: 92.1 ± 0.3%

Compound: CN1CCC(c2c[nH]c3cc(Nc4ccc5ncn(C)c5c4)ccc23)CC1 [Example 200]
inhibition at 330 µM: 67.4 ± 3.4%

Compound: CN1CCc2ccc(Nc3ccc4c5c(n(C)c4n3)CCCC5)cc2C1 [Example 201]
inhibition at 330 µM: 93.3 ± 0.1%

Compound: CC(C)OC1CCc2c(c3ccc(Nc4ccc5c(c4)OCCO5)nc3n2C)C1 (stereo not shown) [Example 203]
inhibition at 330 µM: 93.4 ± 3.5%

Compound: COC1CCc2c(c3ccc(Nc4ccc(F)c(F)c4)nc3n2C)C1 (stereo not shown) [Example 204]
inhibition at 330 µM: 93.5 ± 0.4%

Compound: COC1CCc2c(c3ccc(Nc4ccc5c(c4)OCO5)nc3n2C)C1 (stereo not shown) [Example 205]
inhibition at 330 µM: 91.7 ± 0.1%

Compound: Cn1c2c(c3cc(Nc4ccc5c(c4)OCCO5)ccc31)CN(CCCCS(C)(=O)=O)CC2 [Example 209]
inhibition at 330 µM: 66.2 ± 6.5%

Compound: Cn1c2c(c3ccc(Nc4ccc(F)c(F)c4)cc31)CN(CCCCS(C)(=O)=O)CC2 [Example 210]
inhibition at 330 µM: 43.2 ± 12.9%

The next lines start with the values.

inhibition at 330 µM: 88.5 ± 2.8%
Compound: CN1CCC(c2cn(C)c3nc(Nc4ccc(F)c(F)c4)ccc23)CC1 [Example 151]

inhibition at 330 µM: 80.8 ± 3.6%
Compound: CN1CCC(c2cn(C)c3nc(Nc4ccc5c(c4)CN(C)CC5)ccc23)CC1 [Example 152]

inhibition at 330 µM: 95 ± 1.5%
Compound: CNC1CCc2c(c3ccc(Nc4ccc5c(c4)OCO5)nc3n2C)C1 (stereo not shown) [Example 157]

inhibition at 330 µM: 87.8 ± 3.6%
Compound: CNC1CCc2c(c3ccc(Nc4ccc5c(c4)CN(C)CC5)nc3n2C)C1 (stereo not shown) [Example 158]

inhibition at 330 µM: 32.7 ± 0.9%
Compound: Cn1c2c(c3ccc(N4CCOCC4)nc31)CCCC2 [Example 163]

inhibition at 330 µM: 69.4 ± 2.7%
Compound: CC(=O)N(C)C1CCc2c(c3ccc(Nc4ccc(N5CCOCC5)cc4)nc3n2C)C1 (stereo not shown) [Example 164]

inhibition at 330 µM: 93.6 ± 2.2%
Compound: CN1CCN(c2ccc(Nc3ccc4c5c(n(C)c4n3)CCCC5)cc2)CC1 [Example 166]

inhibition at 330 µM: 88.9 ± 2.6%
Compound: Cn1c2c(c3ccc(Nc4ccc5c(c4)OCC(=O)N5)nc31)CCCC2 [Example 167]

inhibition at 330 µM: 82.1 ± 7%
Compound: Cn1c2c(c3ccc(Nc4ccc5c(c4)NC(=O)CO5)nc31)CCCC2 [Example 168]

inhibition at 330 µM: 92.4 ± 4%
Compound: Cn1c2c(c3ccc(Nc4ccc5c(c4)OCO5)nc31)CCCC2 [Example 169]

inhibition at 330 µM: 29.6 ± 6.2%
Compound: Cn1c2c(c3cc(Nc4ccc5c(c4)OCCO5)ccc31)CS(=O)(=O)CC2 [Example 177]

inhibition at 330 µM: 30.2 ± 0.9%
Compound: Cn1c2c(c3cc(Nc4ccc(C(F)(F)F)nc4)ccc31)CS(=O)(=O)CC2 [Example 179]

inhibition at 330 µM: 6.6 ± 4.3%
Compound: Cn1cnc2ccc(Nc3ccc4c(c3)c3c(n4C)CCS(=O)(=O)C3)cc21 [Example 181]

inhibition at 330 µM: 66.1 ± 6.9%
Compound: CN1CCN(c2ccc(Nc3ccc4c(c3)c3c(n4C)CCS(=O)(=O)C3)cc2)CC1 [Example 182]

inhibition at 330 µM: 42.3 ± 3.1%
Compound: Cn1c2c(c3cc(Nc4ccc(F)nc4)ccc31)CS(=O)(=O)CC2 [Example 183]

inhibition at 330 µM: 41.3 ± 1.1%
Compound: Cn1c2c(c3cc(Nc4ccc(N5CCOCC5)cc4)ccc31)CS(=O)(=O)CC2 [Example 184]

inhibition at 330 µM: 55.2 ± 6%
Compound: c1ccc(Nc2ccc3c(c2)OCO3)cc1 [Example 185]

inhibition at 330 µM: 82.2 ± 6%
Compound: c1cc2c(cc1Nc1ccc3c(c1)OCO3)OCO2 [Example 187]

inhibition at 330 µM: 83.3 ± 6%
Compound: c1cc(N2CCOCC2)ccc1Nc1ccc2c(c1)OCO2 [Example 188]

inhibition at 330 µM: 106.1 ± 0.3%
Compound: CN1CCC(c2c[nH]c3cc(Nc4ccc5c(c4)OCCN5C)ccc23)CC1 [Example 194]

inhibition at 330 µM: 89.7 ± 2.4%
Compound: CN1CCC(c2c[nH]c3cc(Nc4ccc(F)cc4)ccc23)CC1 [Example 195]

inhibition at 330 µM: 80 ± 4.6%
Compound: CN1CCC(c2c[nH]c3cc(Nc4ccc5c(C6CCN(C)CC6)cn(C)c5n4)ccc23)CC1 [Example 196]

inhibition at 330 µM: 68.6 ± 0.5%
Compound: CCOC(=O)N1CCc2c(c3cc(Nc4ccc(F)c(F)c4)ccc3n2C)C1 [Example 199]

inhibition at 330 µM: 86.1 ± 1.6%
Compound: Cn1c2c(c3ccc(Nc4ccc5c(c4)OCCO5)cc31)CNCC2 [Example 202]

inhibition at 330 µM: 94.5 ± 0.7%
Compound: CN1CCc2c(c3cc(Nc4ccc(F)c(F)c4)ccc3n2C)C1 [Example 206]

inhibition at 330 µM: 75.6 ± 13.4%
Compound: Cn1c2c(c3ccc(Nc4ccc5c(c4)OCCO5)cc31)CN(CCCCS(C)(=O)=O)CC2 [Example 207]

inhibition at 330 µM: 85 ± 3.3%
Compound: Cn1c2c(c3cc(Nc4ccc(F)c(F)c4)ccc31)CN(CCCCS(C)(=O)=O)CC2 [Example 208]
